The text below walks through data of US7098340B2, “Benzyl sulfonamide derivatives” (Warner Lambert Company LLC, priority 2003, dated 2006).

For the assay, the target named is T1, androgen receptor (Homo sapiens, UniProt P10275).
T1 sequence (P10275 1-920 Q868H): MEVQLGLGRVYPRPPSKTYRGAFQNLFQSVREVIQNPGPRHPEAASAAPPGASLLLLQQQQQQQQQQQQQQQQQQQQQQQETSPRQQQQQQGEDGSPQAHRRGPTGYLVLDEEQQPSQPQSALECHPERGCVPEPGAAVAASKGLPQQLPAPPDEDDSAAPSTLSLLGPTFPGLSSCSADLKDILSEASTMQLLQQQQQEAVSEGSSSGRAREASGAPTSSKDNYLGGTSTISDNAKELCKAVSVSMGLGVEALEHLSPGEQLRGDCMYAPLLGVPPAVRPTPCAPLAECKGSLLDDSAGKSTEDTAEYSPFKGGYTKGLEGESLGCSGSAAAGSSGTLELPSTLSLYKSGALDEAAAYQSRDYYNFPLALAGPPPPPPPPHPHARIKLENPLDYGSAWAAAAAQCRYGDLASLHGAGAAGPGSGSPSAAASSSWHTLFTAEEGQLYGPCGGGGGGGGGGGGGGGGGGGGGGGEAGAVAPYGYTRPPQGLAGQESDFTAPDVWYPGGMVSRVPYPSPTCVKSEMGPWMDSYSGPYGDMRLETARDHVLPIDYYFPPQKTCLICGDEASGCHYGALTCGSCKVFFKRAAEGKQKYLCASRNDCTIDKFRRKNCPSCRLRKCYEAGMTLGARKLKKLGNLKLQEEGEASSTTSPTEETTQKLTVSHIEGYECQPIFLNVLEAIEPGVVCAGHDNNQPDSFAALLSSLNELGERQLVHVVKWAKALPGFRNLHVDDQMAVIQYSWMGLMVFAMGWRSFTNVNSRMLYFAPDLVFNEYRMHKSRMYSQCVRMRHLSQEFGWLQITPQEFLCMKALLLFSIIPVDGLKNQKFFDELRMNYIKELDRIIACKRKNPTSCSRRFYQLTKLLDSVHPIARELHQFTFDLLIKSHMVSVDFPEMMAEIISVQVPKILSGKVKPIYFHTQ
As to the kind of experiment: AR Antagonist Cell Assay (MMTV-luciferase reporter, DHT-stimulated). The format is cell-based. As to conditions: MDA-MB453-MMTV clone 54-19 cells; antagonism of 100 pM DHT, 17 hr, luciferase readout. The method, boiled down:
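MDA-MB453 cells stably carrying MMTV-ARE-firefly luciferase, in 1% charcoal-treated serum, preincubated 30 min with compound (10 uM or 1 uM) then stimulated with 100 pM DHT for 17 h at 37° C. Luminescence read; result as % inhibition of DHT fold induction.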

A value given as a limit tells only on which side of the number the result lay.

A word on the IC50: it is the concentration needed to halve the response being measured. Lower therefore signals higher potency. For the compound `COc1cc(NS(=O)(=O)c2ccc(Cc3ccc4[nH]c(=O)cc(C(F)(F)F)c4c3)cc2)cc(OC)c1` [Example 34, N-(3,5-Dimethoxyphenyl)-4-(2-oxo-4-trifluoromethyl-1,2-dihydroquinolin-6-ylmethyl)-benzenesulfonamide], the IC50 is more than 10 µM.

As to `O=c1cc(C(F)(F)F)c2cc(Cc3ccc(S(=O)(=O)Nc4cccc5ncccc45)cc3)ccc2[nH]1` [Example 29, 4-(2-Oxo-4-trifluoromethyl-1,2-dihydroquinolin-6-ylmethyl)-N-quinolin-5-ylbenzenesulfonamide], the IC50 was more than 10 µM.

With `O=c1cc(C(F)(F)F)c2cc(Cc3ccc(S(=O)(=O)NCCC4=CCCCC4)cc3)ccc2o1` [Example 175, N-(2-Cyclohex-1-enylethyl)-4-(2-oxo-4-trifluoromethyl-2H-chromen-6-ylmethyl)benzenesulfonamide], inhibition was half-maximal at 8.5 µM (IC50). Under `CC(C)N(C)S(=O)(=O)c1ccc(Cc2ccc3oc(=O)cc(C(F)(F)F)c3c2)cc1` [Example 101, N-Isopropyl-N-methyl-4-(2-oxo-4-trifluoromethyl-2H-chromen-6-ylmethyl)-benzenesulfonamide] stands 2.65 µM; under `N#CCc1ccc(NS(=O)(=O)c2ccc(Cc3ccc4oc(=O)cc(C(F)(F)F)c4c3)cc2)cc1` [Example 126, N-(4-Cyanomethylphenyl)-4-(2-oxo-4-trifluoromethyl-2H-chromen-6-ylmethyl)-benzenesulfonamide], 1.89 µM. `O=c1cc(C(F)(F)F)c2cc(Cc3ccc(S(=O)(=O)Nc4cccc5cccnc45)cc3)ccc2o1` [Example 137, 4-(2-Oxo-4-trifluoromethyl-2H-chromen-6-ylmethyl)-N-quinolin-8-ylbenzenesulfonamide] showed an IC50 of 7.08 µM. On to `O=c1cc(C(F)(F)F)c2cc(Cc3ccc(S(=O)(=O)NCCO)cc3)ccc2[nH]1` [Example 51, N-(2-Hydroxyethyl)-4-(2-oxo-4-trifluoromethyl-1,2-dihydroquinolin-6-ylmethyl)-benzenesulfonamide], for which the IC50 was 2.18 µM. In the case of `O=c1cc(C(F)(F)F)c2cc(Cc3ccc(S(=O)(=O)Nc4ccc(Cl)cc4)cc3)ccc2o1` [Example 135, N-(4-Chlorophenyl)-4-(2-oxo-4-trifluoromethyl-2H-chromen-6-ylmethyl)benzenesulfonamide], half-maximal inhibition (IC50) was put at 2.01 µM. Under `CCOC(=O)Cc1ccc(NS(=O)(=O)c2ccc(Cc3ccc4oc(=O)cc(C(F)(F)F)c4c3)cc2)cc1` [Example 148, {4-[4-(2-Oxo-4-trifluoromethyl-2H-chromen-6-ylmethyl)-benzenesulfonylamino]-phenyl}acetic acid ethyl ester] stands 3.13 µM; under `O=c1cc(C(F)(F)F)c2cc(Cc3ccc(S(=O)(=O)N(CCO)C4CCCCC4)cc3)ccc2[nH]1` [Example 4, N-Cyclohexyl-N-(2-hydroxyethyl)-4-(2-oxo-4-trifluoromethyl-1,2-dihydroquinolin-6-ylmethyl)benzenesulfonamide], more than 10 µM. Under `CC(CNS(=O)(=O)c1ccc(Cc2ccc3oc(=O)cc(C(F)(F)F)c3c2)cc1)c1ccccc1` (centres unmarked) [Example 180, 4-(2-Oxo-4-trifluoromethyl-2H-chromen-6-ylmethyl)-N-(2-phenylpropyl)-benzenesulfonamide] stands 2.06 µM. For `Cc1ccc(NS(=O)(=O)c2ccc(Cc3ccc4oc(=O)cc(C(F)(F)F)c4c3)cc2)cc1` [Example 116, 4-(2-Oxo-4-trifluoromethyl-2H-chromen-6-ylmethyl)-N-p-tolylbenzenesulfonamide], the IC50 stood at 1.21 µM. As to `Cc1ccc(CNS(=O)(=O)c2ccc(Cc3ccc4[nH]c(=O)cc(C(F)(F)F)c4c3)cc2)o1` [Example 55, N-(5-Methylfuran-2-ylmethyl)-4-(2-oxo-4-trifluoromethyl-1,2-dihydroquinolin-6-ylmethyl)-benzenesulfonamide], the IC50 is more than 10 µM. For `CN(CCC#N)S(=O)(=O)c1ccc(Cc2ccc3oc(=O)cc(C(F)(F)F)c3c2)cc1` [Example 108, N-(2-Cyanoethyl)-N-methyl-4-(2-oxo-4-trifluoromethyl-2H-chromen-6-ylmethyl)-benzenesulfonamide] the value was 4.72 µM. For `CN(c1ccccc1)S(=O)(=O)c1ccc(Cc2ccc3oc(=O)cc(C(F)(F)F)c3c2)cc1` [Example 114, N-Methyl-4-(2-oxo-4-trifluoromethyl-2H-chromen-6-ylmethyl)-N-phenylbenzenesulfonamide] the value was 5.94 µM; for `C#Cc1ccc(NS(=O)(=O)c2ccc(Cc3ccc4oc(=O)cc(C(F)(F)F)c4c3)cc2)cc1` [Example 118, N-(4-Ethynylphenyl)-4-(2-oxo-4-trifluoromethyl-2H-chromen-6-ylmethyl)-benzenesulfonamide], 5.47 µM.

`O=c1cc(C(F)(F)F)c2cc(Cc3ccc(S(=O)(=O)NCc4ccccc4OC(F)F)cc3)ccc2[nH]1` [Example 83, N-(2-Difluoromethoxybenzyl)-4-(2-oxo-4-trifluoromethyl-1,2-dihydroquinolin-6-ylmethyl)-benzenesulfonamide] came in with a half-maximal inhibitory concentration (IC50) of more than 10 µM. Under `CN1CCC(N(C)S(=O)(=O)c2ccc(Cc3ccc4oc(=O)cc(C(F)(F)F)c4c3)cc2)CC1` [Example 96, N-Methyl-N-(1-methylpipendin-4-yl)-4-(2-oxo-4-trifluoromethyl-2H-chromen-6-ylmethyl)-benzenesulfonamide] stands more than 10 µM; under `O=c1cc(C(F)(F)F)c2cc(Cc3ccc(S(=O)(=O)NC4CCc5ccccc54)cc3)ccc2o1` (centres unmarked) [Example 178, N-Indan-1-yl-4-(2-oxo-4-trifluoromethyl-2H-chromen-6-ylmethyl)benzenesulfonamide], 7.74 µM. Under `O=c1cc(C(F)(F)F)c2cc(Cc3ccc(S(=O)(=O)N(Cc4ccccc4)Cc4ccccc4)cc3)ccc2[nH]1` [Example 11, N,N-Dibenzyl-4-(2-oxo-4-trifluoromethyl-1,2-dihydroquinolin-6-ylmethyl)benzenesulfonamide] stands more than 10 µM; under `COc1cccc(NS(=O)(=O)c2ccc(Cc3ccc4oc(=O)cc(C(F)(F)F)c4c3)cc2)c1` [Example 156, N-(3-Methoxyphenyl)-4-(2-oxo-4-trifluoromethyl-2H-chromen-6-ylmethyl)benzene-sulfonamide], 1.72 µM; under `O=c1cc(C(F)(F)F)c2cc(Cc3ccc(S(=O)(=O)NCc4ccccc4OC(F)F)cc3)ccc2o1` [Example 199, N-(2-Difluoromethoxybenzyl)-4-(2-oxo-4-trifluoromethyl-2H-chromen-6-ylmethyl)benzenesulfonamide], 4.73 µM. For `O=c1cc(C(F)(F)F)c2cc(Cc3ccc(S(=O)(=O)Nc4cccc(OC(F)F)c4)cc3)ccc2[nH]1` [Example 36, N-(3-Difluoromethoxyphenyl)-4-(2-oxo-4-trifluoromethyl-1,2-dihydroquinolin-6-ylmethyl)-benzenesulfonamide] the value was 6.14 µM; for `CCCCN(C)S(=O)(=O)c1ccc(Cc2ccc3[nH]c(=O)cc(C(F)(F)F)c3c2)cc1` [Example 9B, N-Butyl-N-methyl-4-(2-oxo-4-trifluoromethyl-1,2-dihydroquinolin-6-ylmethyl)benzenesulfonamide], more than 10 µM; for `O=c1cc(C(F)(F)F)c2cc(Cc3ccc(S(=O)(=O)Nc4ccc(F)cc4)cc3)ccc2o1` [Example 117, N-(4-Fluorophenyl)-4-(2-oxo-4-trifluoromethyl-2H-chromen-6-ylmethyl)benzenesulfonamide], 3.46 µM. As to `COCCN(CCOC)S(=O)(=O)c1ccc(Cc2ccc3[nH]c(=O)cc(C(F)(F)F)c3c2)cc1` [Example 12, N,N-Bis(2-methoxyethyl)-4-(2-oxo-4-trifluoromethyl-1,2-dihydroquinolin-6-ylmethyl)benzenesulfonamide], the IC50 was more than 10 µM. Under `O=c1cc(C(F)(F)F)c2cc(Cc3ccc(S(=O)(=O)N(CCO)Cc4ccccc4)cc3)ccc2[nH]1` [Example 9, N-Benzyl-N-(2-hydroxyethyl)-4-(2-oxo-4-trifluoromethyl-1,2-dihydroquinolin-6-ylmethyl)benzenesulfonamide] stands more than 10 µM; under `O=c1cc(C(F)(F)F)c2cc(Cc3ccc(S(=O)(=O)Nc4cccc(-c5cnco5)c4)cc3)ccc2o1` [Example 144, N-(3-Oxazol-5-ylphenyl)-4-(2-oxo-4-trifluoromethyl-2H-chromen-6-ylmethyl)-benzenesulfonamide], 2.17 µM; under `O=c1cc(C(F)(F)F)c2cc(Cc3ccc(S(=O)(=O)NCCc4cccs4)cc3)ccc2o1` [Example 176, 4-(2-Oxo-4-trifluoromethyl-2H-chromen-6-ylmethyl)-N-(2-thiophen-2-ylethyl)benzenesulfonamide], 6 µM.
